Measurements as given in PubChem BioAssay (NCI).
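Each compound was tested at five concentrations against cells in 96-well plates for 48 hours. The concentration for full growth arrest is given as TGI.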

Tests used:
Experiment in all cases: NCI-60 cell line screen, 48 h
ACHN renal = test system: ACHN renal
SF-268 CNS = test system: SF-268 CNS
NCI/ADR-RES ovarian = test system: NCI/ADR-RES ovarian
DU-145 prostate = test system: DU-145 prostate
SN12C renal = test system: SN12C renal
SK-MEL-2 melanoma = test system: SK-MEL-2 melanoma
M14 melanoma = test system: M14 melanoma
SNB-19 CNS = test system: SNB-19 CNS
CAKI-1 renal = test system: CAKI-1 renal
HOP-62 NSCLC = test system: HOP-62 NSCLC

| Compound | TGI (ACHN renal) | TGI (SF-268 CNS) | TGI (NCI/ADR-RES ovarian) | TGI (DU-145 prostate) | TGI (SN12C renal) | TGI (SK-MEL-2 melanoma) | TGI (M14 melanoma) | TGI (SNB-19 CNS) | TGI (CAKI-1 renal) | TGI (HOP-62 NSCLC) |
| --- | --- | --- | --- | --- | --- | --- | --- | --- | --- | --- |
| COC(=O)CCC(=O)NC1=C(NCc2ccccc2)C(=O)c2ccccc2C1=O | > 100 µM | > 100 µM | > 100 µM | > 100 µM | 88.2 µM | 67.1 µM | > 100 µM | > 100 µM | 72.8 µM |  |
| Nc1nc(Cl)c(N)c(NCC2(CO)CC(OCc3ccccc3)C2)n1 (centres undefined) | > 100 µM | > 100 µM | > 100 µM | > 100 µM | > 100 µM | > 100 µM | > 100 µM | > 100 µM | > 100 µM | > 100 µM |
| O=CN1CCN(C(=O)c2ccc(Cl)cc2Cl)C1=S | > 100 µM | > 100 µM | > 100 µM | > 100 µM | > 100 µM | > 100 µM | > 100 µM | > 100 µM | > 100 µM | > 100 µM |
| O=C(c1ccccc1)N1CCN(C(=S)N(C(=O)c2ccccc2)c2ccccc2)C1=S | 7.2 µM | 14.7 µM | > 27.7 µM | 10.6 µM | 12.2 µM | 23.5 µM | 9.51 µM | 26.3 µM | 7.5 µM | 26.3 µM |
| Nc1ncnc2c1nnn2C1C=CC(COS(N)(=O)=O)C1 (centres undefined) | 49.1 µM | 93.6 µM | > 100 µM | > 100 µM | > 100 µM | 21.4 µM | 25 µM | 33.3 µM | 12.2 µM | > 100 µM |
| OC(c1cc2ccccc2o1)c1cc2ccccc2s1 (centres undefined) | > 10 µM | > 10 µM | > 10 µM | > 10 µM | > 10 µM | > 10 µM | > 10 µM | > 10 µM | > 10 µM | > 10 µM |
| COC(=O)CCC(=O)NC1=C(Nc2ccc(OC)cc2)C(=O)c2ccccc2C1=O | 54.5 µM | 98.2 µM | 60.3 µM | 26.9 µM | 27.3 µM | 20.1 µM | 19.7 µM | 37.7 µM | 40.2 µM | 33.2 µM |
| CCCCc1ccc(Nc2nc3c(ncn3C3CC(O)C(CN=[N+]=[N-])O3)c(=O)[nH]2)cc1 (centres undefined) | > 100 µM | > 100 µM | > 100 µM | > 100 µM | > 100 µM | > 100 µM | > 100 µM | > 100 µM | > 100 µM | > 100 µM |
| COC(=O)C(Cc1c(C2Nc3ccccc3C2CC(NC(=O)CNC(C)=O)C(=O)OC)[nH]c2ccccc12)NC(=O)CNC(C)=O (centres undefined) | > 100 µM | > 100 µM | > 100 µM | > 100 µM | > 100 µM | > 100 µM | > 100 µM | > 100 µM | > 100 µM | > 69.8 µM |
| CC[C@]12C=CCN3CC[C@@]4(c5cc(Br)c(OC)cc5N(C)[C@H]4[C@@](O)(C(=O)NN)[C@@H]1O)[C@@H]32 | > 100 µM | > 100 µM | > 100 µM | > 100 µM | > 100 µM | 70.6 µM | > 100 µM | > 100 µM | > 100 µM | > 100 µM |
